Legend:
Assay type in all cases: in vivo, human
[1] = system: patient with hypoesthesia and proprioceptive disorders; experiment: Case report: amiloride cream on hypoesthetic areas, hypoesthesia and proprioceptive disorders after bortezomib; conditions: cream of amiloride 10%, twice a day, after 1 month of use
Protocol: A patient suffered from hypoesthesia and proprioceptive disorders with difficulty gripping the foot on the ground, impression of walking on cotton and complained of the impression of having a permanently rolled sock under the feet in addition to a sensation of having edematous toes since they received a treatment with bortezomib in 2016 for treating their myeloma. They were treated with a cream of amiloride 10% applied locally to the hypoesthetic areas twice a day.

[2] = system: patient with peripheral sensory neuropathy of feet and hands with hypoesthesia and proprioceptive disorders; experiment: Case report: amiloride cream on hypoesthetic areas, neuropathy induced by Ado-trastuzumab emtansine (T-DM1); conditions: cream of amiloride 5%, applied locally to hypoesthetic areas twice a day
Excerpt: A patient received Ado-trastuzumab emtansine (T-DM1), the first HER2-targeted antibody-drug conjugate to get the approval of the Food and Drug Administration (FDA), for the treatment of their metastatic HER2-positive breast cancer.
For more than 2 years, they had repeated falls due to loss of feeling in their feet, cuts on their hands, unnoticed burns, “splinters in the skin following their gardening activities” with infection in the aftermath because they had not realized it.
They complained of often dropping objects held in their hands and of no longer being able to sew due to the impossibility of holding a fine needle.
They were treated with a cream of amiloride 5% applied locally to the hypoesthetic areas twice a day.

[3] = system: patients with somatosensory impairments; experiment: Summary statement: patients treated with a topical composition of amiloride
[4] = system: patient with hypoesthesia with lost sensations in feet and fingertips; experiment: Case report: amiloride cream, hypoesthesia after oxaliplatine
Protocol: A patient suffering from colon cancer was treated for 4 months with oxaliplatine in December 2019. They developed hypoesthesia with lost sensations in feet and in the fingertips of both hands and complained of having the impression of a permanently “rolled sock” under the feet. They were treated with a cream of amiloride 10% applied twice a day during one month and they noticed an improvement in the feeling of the right foot “rolled sock” (4/10 vs 8/10 before this treatment), a little less on the left foot (6/10 vs 8/10).

NC(N)=NC(=O)c1nc(Cl)c(N)nc1N [amiloride, 3,5-diamino-6-chloro-N-(diaminomethylidene) pyrazine-2-carboxamide]
impression of having a permanently rolled sock under the feet [1]: disappeared | impression of walking on cotton [1]: disappeared | sensation of edema of the toes [1]: has disappeared | feeling of hot and cold on the soles of the feet ([1]; patient): feels better hot and cold on the soles of their feet | sensation of hands and feet [2]: regained the sensation of their hands and feet | sensations in insensitive body areas, proprioception and mechanical allodynia [3]: able to recover sensations in insensitive body areas and a correct proprioception and noted the disappearance of mechanical allodynia | sensation "rolled sock" ([4]; amiloride concentration in the cream increased to 15%): further decrease the sensation “rolled sock” even on the left foot | sensitivity in the fingertips of both hands ([4]; cream of amiloride 10%, twice a day during one month): regained the sensitivity in the fingertips of both hands | feeling of "rolled sock", left foot ([4]; cream of amiloride 10%, twice a day during one month, 8/10 before treatment): 6/10 | feeling of "rolled sock", right foot ([4]; cream of amiloride 10%, twice a day during one month, 8/10 before treatment, patient): 4/10

Reference: patent US20250152583A1, “AMILORIDE FOR USE IN THE TOPICAL TREATMENT OF SOMATOSENSORY IMPAIRMENTS” (ASSISTANCE PUBLIQUE - HOPITAUX DE PARIS, priority 2022, published 2025)
